Here are results for 39 molecules from patent US9403843B2, “Cysteine protease inhibitors and uses thereof” (The Trustees of Columbia University in the City of New York, priority 2012, dated 2016).

“Also recorded” adds a separate entry of the source.

The target of the first experiment is T1, full-length human Cal1 (Homo sapiens (Human), UniProt P07384). Description: Calpain inhibition FRET assay. It counts as biochemical.
T1 sequence (P07384 whole entry): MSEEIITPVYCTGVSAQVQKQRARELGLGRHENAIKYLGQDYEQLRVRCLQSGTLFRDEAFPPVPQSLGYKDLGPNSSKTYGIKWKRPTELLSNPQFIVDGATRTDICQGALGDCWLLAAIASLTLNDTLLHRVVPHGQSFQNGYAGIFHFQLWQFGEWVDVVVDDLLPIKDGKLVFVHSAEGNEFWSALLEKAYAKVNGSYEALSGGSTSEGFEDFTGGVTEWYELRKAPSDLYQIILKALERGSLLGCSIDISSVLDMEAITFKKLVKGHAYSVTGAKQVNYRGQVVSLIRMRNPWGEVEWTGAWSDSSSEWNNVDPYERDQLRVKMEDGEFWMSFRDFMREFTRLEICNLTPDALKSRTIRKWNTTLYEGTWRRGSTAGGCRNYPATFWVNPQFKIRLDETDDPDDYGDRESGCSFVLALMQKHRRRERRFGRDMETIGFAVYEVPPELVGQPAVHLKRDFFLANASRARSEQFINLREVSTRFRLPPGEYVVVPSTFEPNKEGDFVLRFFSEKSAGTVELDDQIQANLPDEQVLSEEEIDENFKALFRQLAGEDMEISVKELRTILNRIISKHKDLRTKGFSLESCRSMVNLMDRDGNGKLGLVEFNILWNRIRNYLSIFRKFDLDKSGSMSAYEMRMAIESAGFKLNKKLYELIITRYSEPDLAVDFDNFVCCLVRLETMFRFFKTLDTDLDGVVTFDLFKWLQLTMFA
T1 sequence (P04632 whole entry partner): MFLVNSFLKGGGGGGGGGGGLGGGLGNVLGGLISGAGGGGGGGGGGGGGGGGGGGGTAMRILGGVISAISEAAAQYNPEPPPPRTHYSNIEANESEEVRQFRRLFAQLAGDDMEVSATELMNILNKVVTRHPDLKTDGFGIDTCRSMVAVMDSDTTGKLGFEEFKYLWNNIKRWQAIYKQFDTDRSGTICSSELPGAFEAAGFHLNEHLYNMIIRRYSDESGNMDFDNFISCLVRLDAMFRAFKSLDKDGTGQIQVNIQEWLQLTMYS
Conditions: not given
As for the experimental part:
Calpain activity was measured using full-length human Cal1 in the presence of a FRET substrate. IC50 values were approximated by co-incubation of varying concentrations of the appropriate inhibitor (10, 100, 500, 1000 nM) in the presence of the FRET substrate (DABCYL)TPLK-SPPSPR-(EDANS) (SEQ ID NO: 5) and activation buffer. […] A peptide inhibitor, Z-LLY-FMK (SEQ ID NO: 6), was used as a positive control.
The Calbiochem InnoZyme activity kit was used for measuring the inhibition effect inhibitors on human erythrocyte calpain 1 activity. […] 20 μM of the FRET substrate, 10 nM of native Cal1, and 20 μM TCEP (reducing agent) were added to the reaction mixture containing assay buffer (Tris [10 mM], NaCl [100 mM], pH 7.4). Cal1 was activated by the addition of 10 μM calcium. Cleavage of the scissile bond amide bond, K-S, releases the fluorophore (EDANS) from the internal quenching molecule (DABCYL), resulting in an increase in fluorescence measured at 320 nm excitation and 480 nm emission wave lengths for 30 min. Each inhibitor was added to the reaction mixture at varying concentrations (10 nM, 100 nM, 1 μM, and 10 μM) to detect inhibition of Cal1 and reduction in fluorescence was measured by 96 well-plate reader. Approximate IC50 values of each compound were generated using linear regression within Graphpad Prism Software.
`O=C(NCc1cn(-c2cc(C(F)(F)F)cc(C(F)(F)F)c2)nn1)[C@H](Cc1cscn1)NC(=O)[C@H]1O[C@@H]1C(=O)O` [Compound 54, (2S,3S)-3-((S)-1-((1-(3,5-bis(trifluoromethyl)phenyl)-1H-1,2,3-triazol-4-yl)methylamino)-1-oxo-3-(thiazol-4-yl)propan-2-ylcarbamoyl)oxirane-2-carboxylic acid]: the “Cal1 inhibition (in words)” value is “relatively high IC50 values; also recorded: weak activity”.

Turning to `NS(=O)(=O)c1ccc(-n2cc(CNC(=O)[C@H](Cc3cscn3)NC(=O)[C@H]3O[C@@H]3C(=O)O)nn2)cc1` [Compound 53, (2S,3S)-3-((S)-1-oxo-1-((1-(4-sulfamoylphenyl)-1H-1,2,3-triazol-4-yl)methylamino)-3-(thiazol-4-yl)propan-2-ylcarbamoyl)oxirane-2-carboxylic acid], the “Cal1 inhibition (in words)” value was “relatively high IC50 values”.

Turning to `O=C(NCc1cn(-c2ccc3c(c2)OCO3)nn1)[C@H](Cc1cscn1)NC(=O)[C@H]1O[C@@H]1C(=O)O` [Compound 52, (2S,3S)-3-((S)-1-((1-(benzo[d][1,3]dioxol-5-yl)-1H-1,2,3-triazol-4-yl)methylamino)-1-oxo-3-(thiazol-4-yl)propan-2-ylcarbamoyl)oxirane-2-carboxylic acid], the “Cal1 inhibition (in words)” value is “potent activity”.

Still in this experiment, the particulars now being: Table 2; approximate IC50; read-out: Cal I IC50.
On to `O=C(NCc1cn(-c2cc(C(F)(F)F)cc(C(F)(F)F)c2)nn1)[C@H](Cc1cscn1)NC(=O)[C@H]1O[C@@H]1C(=O)O` [Compound 54, (2S,3S)-3-((S)-1-((1-(3,5-bis(trifluoromethyl)phenyl)-1H-1,2,3-triazol-4-yl)methylamino)-1-oxo-3-(thiazol-4-yl)propan-2-ylcarbamoyl)oxirane-2-carboxylic acid], for which the half-inhibitory concentration (IC50) is more than 1000 nM.

On to `CC(C)C[C@H](NC(=O)C1OC1c1ccccc1)C(=O)NCCCCNC(=N)N` (stereo partly shown) [Compound 65], for which the IC50 was more than 1000 nM.

Turning to `CCOC(=O)[C@H]1O[C@@H]1C(=O)NC1(C(=O)NCCCCNS(=O)(=O)c2ccc(F)cc2)CCCCC1` [Compound 69], the IC50 is more than 1000 nM.

For `CCOC(=O)[C@H]1O[C@@H]1C(=O)NCc1ccc(CO)cc1` [Compound 82], the IC50 is more than 1000 nM.

For `CC(C)C[C@H](NC(=O)[C@H]1O[C@@H]1C(=O)O)C(=O)Nc1c(F)cccc1F` [Compound 23a, (2S,3S)-3-((S)-1-(2,6-difluorophenylamino)-4-methyl-1-oxopentan-2-ylcarbamoyl)oxirane-2-carboxylic acid], the IC50 amounted to 50 nM.

`Cc1cc(C)c(NC(=O)[C@H](Cc2cnc[nH]2)NC(=O)[C@H]2O[C@@H]2C(=O)O)c(C)c1` [Compound 29, (2S,3S)-3-((S)-3-(1H-imidazol-5-yl)-1-(mesitylamino)-1-oxopropan-2-ylcarbamoyl)oxirane-2-carboxylic acid]: the IC50 came to 5000 nM.

For `Cn1cncc1C[C@H](NC(=O)[C@H]1O[C@@H]1C(=O)O)C(=O)Nc1nc(-c2ccc(F)cc2)cs1` [Compound 35, (2S,3S)-3-((S)-1-(4-(4-fluorophenyl)thiazol-2-ylamino)-3-(1-methyl-1H-imidazol-5-yl)-1-oxopropan-2-ylcarbamoyl)oxirane-2-carboxylic acid], the IC50 worked out at 5000 nM.

With `O=C(Nc1nc(-c2ccc(F)cc2)cs1)[C@H](Cc1c[nH]cn1)NC(=O)[C@@H]1O[C@H]1C(=O)O` [Compound 30b, (2R,3R)-3-((S)-1-(4-(4-fluorophenyl)thiazol-2-ylamino)-3-(1H-imidazol-4-yl)-1-oxopropan-2-ylcarbamoyl)oxirane-2-carboxylic acid], the IC50 is more than 1000 nM.

Regarding `NS(=O)(=O)c1ccc(-n2cc(CNC(=O)[C@H](Cc3cscn3)NC(=O)[C@H]3O[C@@H]3C(=O)O)nn2)cc1` [Compound 53, (2S,3S)-3-((S)-1-oxo-1-((1-(4-sulfamoylphenyl)-1H-1,2,3-triazol-4-yl)methylamino)-3-(thiazol-4-yl)propan-2-ylcarbamoyl)oxirane-2-carboxylic acid], the IC50 was more than 1000 nM.

On to `CCOC(=O)[C@@H]1O[C@H]1C(=O)NCc1ccc(CO)cc1` [Compound 79], for which the half-inhibitory concentration (IC50) is more than 1000 nM.

For `CCOC(=O)[C@H]1O[C@@H]1C(=O)N[C@@H](CC(C)C)C(=O)Nc1c(F)cccc1F` [Compound 81], the IC50 is more than 1000 nM.

As for `CC(C)NC(=O)[C@@H]1O[C@H]1C(=O)O` [Compound 74], the IC50 is more than 1000 nM.

On to `O=C(NCc1cn(-c2ccc3c(c2)OCO3)nn1)[C@H](Cc1cscn1)NC(=O)[C@H]1O[C@@H]1C(=O)O` [Compound 52, (2S,3S)-3-((S)-1-((1-(benzo[d][1,3]dioxol-5-yl)-1H-1,2,3-triazol-4-yl)methylamino)-1-oxo-3-(thiazol-4-yl)propan-2-ylcarbamoyl)oxirane-2-carboxylic acid], for which the IC50 was determined as 400 nM.

As to `CCOC(=O)[C@H]1OC1C(=O)N[C@@H](CC(C)C)C(=O)NCCCCNC(=O)CCCC[C@@H]1SC[C@@H]2NC(=O)N[C@@H]21` (stereo partly shown) [Compound 59], the IC50 was more than 1000 nM.

On to `CC(C)C[C@H](NC(=O)C1OC1c1ccccc1)C(=O)NCCCCNC(=O)CCCCC1CCSS1` (stereo partly shown) [Compound 62], for which the IC50 was more than 1000 nM.

As to `CCOC(=O)[C@@H]1O[C@H]1C(=O)N[C@@H](CC(C)C)C(=O)Nc1c(F)cccc1F` [Compound 80], the IC50 is more than 1000 nM.

Regarding `CCOC(=O)[C@H]1OC1C(=O)N[C@@H](CC(C)C)C(=O)NCCCCNS(=O)(=O)c1ccc(F)cc1` (stereo partly shown) [Compound 63], the IC50 is more than 1000 nM.

Take `CC(C)C[C@H](NC(=O)[C@H]1O[C@@H]1C(=O)O)C(=O)NCc1cn(-c2ccc(F)cc2)nn1` [Compound 86]: the IC50 came out at 30 nM.

Turning to `CC(C)C[C@H](NC(=O)[C@H]1O[C@@H]1C(=O)O)C(=O)NCc1cn(-c2ccc(S(N)(=O)=O)cc2)nn1` [Compound 87], the IC50 amounted to 50 nM.

Take `O=C(O)[C@H]1O[C@@H]1C(=O)NCc1ccc(CO)cc1` [Compound 83]: the half-maximal inhibitory concentration (IC50) was more than 1000 nM.

As to `CCOC(=O)[C@H]1O[C@@H]1C(=O)N[C@@H](CC(C)C)C(=O)N(C)c1nc(-c2ccc(F)cc2)cs1` [Compound 71], the IC50 was more than 1000 nM.

With `O=C(Nc1nc2ccc(F)cc2s1)[C@H](Cc1c[nH]cn1)NC(=O)[C@H]1O[C@@H]1C(=O)O` [Compound 31a, (2S,3S)-3-((S)-1-(6-fluorobenzo[d]thiazol-2-ylamino)-3-(1H-imidazol-4-yl)-1-oxopropan-2-ylcarbamoyl)oxirane-2-carboxylic acid], the IC50 was 535 nM.

Regarding `O=C(Nc1ccccc1)[C@H](Cc1cnc[nH]1)NC(=O)[C@H]1O[C@@H]1C(=O)O` [Compound 28, (2S,3S)-3-((S)-3-(1H-imidazol-4-yl)-1-oxo-1-(phenylamino)propan-2-ylcarbamoyl)oxirane-2-carboxylic acid], the IC50 came out at 5000 nM.

Regarding `CCOC(=O)[C@@H]1O[C@H]1C(=O)N[C@@H](Cc1cnc[nH]1)C(=O)Nc1nc(-c2ccc(F)cc2)cs1` [Compound 77], the IC50 was more than 1000 nM.

As for `CCOC(=O)[C@H]1O[C@@H]1C(=O)N[C@@H](Cc1cnc[nH]1)C(=O)Nc1nc(-c2ccc(F)cc2)cs1` [Compound 78], the IC50 is more than 1000 nM.

Take `CC(C)C[C@H](NC(=O)[C@H]1O[C@@H]1C(=O)O)C(=O)NCCCCNS(=O)(=O)c1ccc(F)cc1` [Compound 68]: the IC50 was 100 nM.

Regarding `CCOC(=O)[C@@H]1O[C@H]1C(=O)N[C@@H](CC(C)C)C(=O)Nc1nc(-c2ccc(F)cc2)cs1` [Compound 75], the IC50 is more than 1000 nM.

Consider `C#CCNC(=O)[C@H](CC(C)C)NC(=O)C1OC1c1ccccc1` (stereo partly shown) [Compound 60], for which the half-inhibitory concentration (IC50) was more than 1000 nM.

With `CCOC(=O)[C@@H]1O[C@H]1C(=O)NC(C)C` [Compound 73], the IC50 was more than 1000 nM.

In the case of `C#CCNC(=O)[C@H](CC(C)C)NC(=O)[C@H]1O[C@@H]1C(=O)O` [Compound 88], the half-maximal inhibitory concentration (IC50) was found to be 275 nM.

On to `CCOC(=O)[C@@H]1O[C@H]1C(N)=O` [Compound 76], for which the IC50 was more than 1000 nM.

As for `CCOC(=O)[C@H]1O[C@@H]1C(=O)N[C@@H](Cc1cnc[nH]1)C(=O)Nc1ccccc1` [Compound 85], the IC50 is more than 10000 nM.

With `CCOC(=O)[C@H]1O[C@@H]1C(=O)N[C@@H](CC(C)C)C(=O)Nc1ccccc1` [Compound 84], the IC50 worked out at 2500 nM.

`CC(C)C[C@H](NC(=O)[C@H]1O[C@@H]1C(=O)O)C(=O)N(C)c1nc(-c2ccc(F)cc2)cs1` [Compound 72]: the half-maximal inhibitory concentration (IC50) turned out to be 200 nM.

On to `CC(C)C[C@H](NC(=O)[C@H]1O[C@@H]1C(=O)O)C(=O)Nc1ccccc1` [Compound 22, (2S,3S)-3-((S)-4-methyl-1-oxo-1-(phenylamino)pentan-2-ylcarbamoyl)oxirane-2-carboxylic acid], for which the IC50 was found to be 100 nM.

Consider `CCOC(=O)[C@H]1O[C@@H]1C(=O)N[C@@H](CC(C)C)C(=O)Nc1nc(-c2ccc(F)cc2)cs1` [Compound 70], for which the IC50 is more than 1000 nM.

The target in a further experiment is T1, full-length human Cal1. In words: Calpain inhibition FRET assay. The format is biochemical. The conditions noted are these: Table 3, 20 min incubation, FRET substrate.
`CC(C)C[C@H](NC(=O)[C@H]1O[C@@H]1C(=O)O)C(=O)Nc1c(F)cccc1F` [Compound 23a, (2S,3S)-3-((S)-1-(2,6-difluorophenylamino)-4-methyl-1-oxopentan-2-ylcarbamoyl)oxirane-2-carboxylic acid] yielded an IC50 of 100 nM.

Staying with this experiment, now noted: Table 3, 20 min incubation, FRET substrate, >1: inhibition not quantifiable at 1 μM.
As for `O=C(NCc1cn(-c2cc(C(F)(F)F)cc(C(F)(F)F)c2)nn1)[C@H](Cc1cscn1)NC(=O)[C@H]1O[C@@H]1C(=O)O` [Compound 54, (2S,3S)-3-((S)-1-((1-(3,5-bis(trifluoromethyl)phenyl)-1H-1,2,3-triazol-4-yl)methylamino)-1-oxo-3-(thiazol-4-yl)propan-2-ylcarbamoyl)oxirane-2-carboxylic acid], the IC50 is more than 1000 nM.

Take `O=C(Nc1nc(-c2ccc(F)cc2)cs1)[C@H](Cc1c[nH]cn1)NC(=O)[C@@H]1O[C@H]1C(=O)O` [Compound 30b, (2R,3R)-3-((S)-1-(4-(4-fluorophenyl)thiazol-2-ylamino)-3-(1H-imidazol-4-yl)-1-oxopropan-2-ylcarbamoyl)oxirane-2-carboxylic acid]: the IC50 is more than 1000 nM.

Consider `NS(=O)(=O)c1ccc(-n2cc(CNC(=O)[C@H](Cc3cscn3)NC(=O)[C@H]3O[C@@H]3C(=O)O)nn2)cc1` [Compound 53, (2S,3S)-3-((S)-1-oxo-1-((1-(4-sulfamoylphenyl)-1H-1,2,3-triazol-4-yl)methylamino)-3-(thiazol-4-yl)propan-2-ylcarbamoyl)oxirane-2-carboxylic acid], for which the IC50 was more than 1000 nM.

`O=C(NCc1cn(-c2ccc(S(=O)(=O)N3CCCCC3)cc2)nn1)[C@H](Cc1cscn1)NC(=O)[C@H]1O[C@@H]1C(=O)O` [Compound 51, (2S,3S)-3-((S)-1-oxo-1-((1-(4-(piperidin-1-ylsulfonyl)phenyl)-1H-1,2,3-triazol-4-yl)methylamino)-3-(thiazol-4-yl)propan-2-ylcarbamoyl)oxirane-2-carboxylic acid] displayed a half-maximal inhibitory concentration (IC50) of 1500 nM.

For `O=C(NCc1cn(-c2ccccc2)nn1)[C@H](Cc1cscn1)NC(=O)[C@H]1O[C@@H]1C(=O)O` [Compound 49, (2S,3S)-3-((S)-1-oxo-1-((1-phenyl-1H-1,2,3-triazol-4-yl)methylamino)-3-(thiazol-4-yl)propan-2-ylcarbamoyl)oxirane-2-carboxylic acid], the midpoint of inhibition, the IC50, lay at 1000 nM.

For `O=C(Nc1ccccc1)[C@H](Cc1cscn1)NC(=O)[C@H]1O[C@@H]1C(=O)O` [Compound 32, (2S,3S)-3-((S)-1-oxo-1-(phenylamino)-3-(thiazol-4-yl)propan-2-ylcarbamoyl)oxirane-2-carboxylic acid], the IC50 is 2500 nM.

The IC50 is the concentration at which inhibition is half-maximal.
